In brackets after ≈: the same amount, converted by molar mass. Several values for one entry are separate records, joined by “and”; a condition that tells them apart may be missing. Identical values can stand only once. Like-named read-outs stand apart in the source and are kept apart here.
Experiments:
[1] = tested on: Leishmania aethiopica promastigotes; assay: In vitro antipromastigote (antileishmanial) assay, AlamarBlue; type: cell-based
Protocol: The viability of promastigotes can be estimated by microscopically counting live cells, measuring enzyme activities via the 3-(4,5-dimethyl-thiazol-2-yl)-2,5-diphenyl-tetrazolium bromide (MTT) assay, etc. The frequent use of these methods is hampered due to the lengthy and time-consuming procedures followed in the test. […] The extent of fluorescence produced by each sample is strongly correlated with the number of living cells.
A complete culture medium was prepared from RPMI-1640, 10% HIFCS, 1% penicillin–streptomycin, and 1% L-glutamine for the in vitro antipromastigote assay. The Leishmania aethiopica isolate was grown first on Novy-MacNeal-Nicolle (NNN) medium and then in tissue-culture flasks containing RPMI-1640 medium supplemented with 10% HIFCS and 1% 100 IU penicillin/mL-100 µg/mL streptomycin solution at 22 ℃ [35].
The entire test compound was dissolved in DMSO to a final concentration of 1 mg/mL. The final DMSO concentration was adjusted not to exceed v/v 1% to avoid its inhibitory effect against parasite proliferation or change in morphology. Six different concentrations of test compounds, ranging from 10 µg/mL to 0.04 µg/mL, were prepared by […] serial dilutions. Amphotericin B deoxycholate (with a concentration ranging from 0.5 µg/mL to 0.002 µg/mL) and miltefosine (with a concentration ranging from 40 µg/mL to 0.16 µg/mL) were used as a positive control and DMSO (v/v 1%) in complete media was used as a negative control to compare the antileishmanial activities of test compounds [36]. All the prepared drugs were stored at − 20 ℃ until used in the experiment.
The antileishmanial activity of the test compounds was evaluated in vitro against isolates of Leishmania aethiopica promastigotes. 100 µL of the parasite suspension containing 3 × 10^6 promastigotes per milliliter was added to 96-well plates. The six different concentrations of test compounds and reference drugs were then added in triplicate. DMSO in complete RPMI media was used as a negative control to compare the antileishmanial activities of the test compounds. After 24 h incubation, 20 µL of fluorochrome AlamarBlue® (12.5 mg resazurin dissolved in 100 mL of distilled water) was added to each well. Then, the absorbance of each well was measured after 4 h of incubation at wavelengths of 492 and 630 nm using an ELISA reader for the quantitative determination of viable cells. Finally, the IC50 values were computed from sigmoidal dose–response curves using GraphPad Prism 5.0 software (GraphPad Software, Inc., San Diego, CA, USA).

[2] = design: method as in PMID 25768697; details: cited from earlier work
[3] = tested on: Plasmodium berghei ANKA strain; assay: In vivo antimalarial four-day suppressive test; design: species or system Swiss albino mice; details: for % Parasitemia / Mean survival time: mean ± SD; for inhibition in vivo at 48.46 µmol/kg: Plasmodium berghei, in Mus musculus, 96 h, read-out: % Suppression; for Mean survival time: 48.46 µmol/kg per day (CQ 25 mg/kg), ND = no mouse death recorded during the study period
From the text: The four-day suppressive test was implemented to screen the antimalarial activity of the target compounds as it is effective in evaluating early infections and convenient to assess the prodrug effects of test compounds [30]. In this study, the in vivo antimalarial activity of the target compounds was investigated by using mice infected with Plasmodium berghei (achieve steady-state infection) at a dose of 48.4 µmol/kg per day. The results of the antimalarial activity screening of target compounds against the control groups were expressed based on mean parasitemia and percent inhibition of parasitemia (Table 2) which is known as a reliable parameter for in vivo antimalarial screening tests. […] While compounds 9, 10 and 11 containing amidic carbonyl group had less than 50% mean percent suppression compared to the positive control groups. Among the tested compounds, bis-[N,N-dimethylaminomethylene-4-(3-(4-methylphenyl)-4-(hydrazonomethylene)-1H-pyrazole-1-yl)benzenesulfonamide] […] On the other hand, there was an increase in the mean survival time (9.8 ± 1.3) of mice treated with a half dose ([…]) of compound 15, highlighting the potential dose-dependent toxicity associated with bis-structure due to cleavage of acid labile C = N bond and subsequent increase in concentration in the systemic circulation. […] This could be attributed to the presence of a primary amine group adjacent to the C = N bond that can increase the strength of binding interaction with the active site of the receptor by hydrogen bonding. Moreover, the hydrophobic interaction imparted by the methylated phenyl group with the amino acid residues in the enzyme pocket may be beneficial for the observed antimalarial activity of compound 14. The compounds containing C = O bond (9–12) near C = N had relatively lower antimalarial activity due to the electron-withdrawing effect and subsequent decrease in hydrogen bonding interactions with the different functional groups reside in the enzyme pocket.
The in vivo antimalarial activity of the synthesized compounds was determined using the four-day standard suppressive test using Swiss albino mice donated by the Ethiopian Health and Nutrition Institute, Addis Ababa, Ethiopia. Briefly, Swiss albino mice were infected with Plasmodium berghei ANKA strain (0.2 mL of 2 × 10^7 parasitized erythrocytes) through intraperitoneal injection. After 2 h of infection, the mice were weighed and randomly divided into nine groups of five mice per cage. Groups 1–7 received each test compound ([…]) dissolved in a vehicle containing 7% Tween 80, 3% ethanol, and water. Group 8 was treated with chloroquine phosphate (25 mg/kg) suspended in 7% Tween 80, 3% ethanol, and water which served as a positive control. Group 9 received 2 mL/100 g of the negative control (vehicle 7% Tween 80, 3% ethanol, and water). On day four (96 h post-infection), a blood smear was taken from the tail of each mouse, fixed with absolute ethanol, and stained with Giemsa stain. Then, the level of parasitemia was determined microscopically by counting four fields of approximately 100 erythrocytes per field. Finally, the antimalarial effects of control groups and test compounds were expressed in terms of blood parasitemia, percent suppression and mean survival time of mice.
The % suppression and % parasitemia in the antimalarial activity testing were computed using the formulas given below and the resulting data along with the mean survival time was analyzed using Microsoft office excel 2007. The variation in the values of suppressive test was assessed by using one-way analysis of variance (ANOVA) and p < 0.05 is considered as stastically significant.
Parasitemia(%)=Numberofinfectedredbloodcells/Numberoftotalredbloodcells×100
Suppression(%)=Parasitemiaintheuntreatedgroup-Parasitemiainthetreatedgroup/Parasitemiainuntreatedgroup×100

[4] = tested on: chloroquine-resistant RKL9 strains; details: read-out: IC50 against chloroquine-resistant RKL9 strains; cited from earlier work
[5] = In vitro cytotoxicity test; type: cell-based, African green monkey; details: African green monkey, VERO cells (African green monkey kidney cells); normal VERO cells, 72 h, formazan OD
Protocol: (§1) The cytotoxicity of compound 13 with promising antileishmanial activity was investigated in vitro against African green monkey kidney cells (VERO cells). In a 96-well plate, VERO cells (1 × 10^5 cells per well) were incubated in triplicates with different concentrations of compound 13 (0–100 µM) for 72 h at 37 ℃ incubator with 95% humidity and 5% CO2 and the cell viability was determined by measuring the optical density (OD) of formazan. […] The CC50 and IC50 values were computed using the formula: Growth inhibition (%) = (ODcontrol-ODtest/ODcontrol)×100 . In addition, the selectivity indices (SI) were computed using the formula SI = CC50/IC50.

VERO cells = assay: In vitro cytotoxicity test; type: cell-based, African green monkey; details: CC50 VERO cells / IC50 Leishmania aethiopica
Protocol: as §1

[6] = In vivo acute toxicity test (oral and intraperitoneal); details: mice
Protocol: The mice were weighed and divided into five groups of six mice per cage. After fasting them overnight, groups 1–4 received the test compound suspended in 1% acacia gum was administered orally at doses of 50, 100, 200, and 300 mg/kg. Group 5 (served as a control) was treated with the solvent (1% acacia gum) at a maximum dose of 1 mL/100 gm of body weight. […] Follow-up continued for 14 days with special attention for the first 24 h.

[7] = Leishmania aethiopica promastigotes, triplicate, 24 h incubation + 4 h AlamarBlue, read-out: IC50 Values (µg/mL), antipromastigote activity
[8] = Leishmania aethiopica promastigotes, molar form of the µg/mL values, read-out: IC50 Values (µM/mL), antipromastigote activity
[9] = P. berghei infected mice, day 4, 48.46 µmol/kg per day (CQ 25 mg/kg)
[10] = Leishmania aethiopica, value used for selectivity index, read-out: IC50 (µM) of antileishmanial activity (Table 3)

Compound | IC50 [1, 7] [µg/mL] | IC50 [1, 8] [µM] | % Parasitemia [3, 9] [%] | Mean survival time ([3]; P. berghei infected mice) [days] | inhibition in vivo at 48.46 µmol/kg [3, 9] [%] | also measured
C[C@@H]1[C@H](O)[C@@H](C)/C=C/C=C/C=C/C=C/C=C/C=C/C=C/[C@H](O[C@@H]2O[C@H](C)[C@@H](O)[C@H](N)[C@@H]2O)C[C@@H]2O[C@](O)(C[C@@H](O)C[C@@H](O)[C@H](O)CC[C@@H](O)C[C@@H](O)CC(=O)O[C@H]1C)C[C@H](O)[C@H]2C(=O)O [Amphotericin B, Amphotericin B deoxycholate, reference compound] | 0.047 | 0.035 |  |  |  | IC50, antileishmanial activities [2]: 0.0472 µg/mL (≈ 0.0511 µM)
CCN(CC)CCCC(C)Nc1ccnc2cc(Cl)ccc12 (stereo not drawn) [CQ, Chloroquine phosphate, reference compound] |  |  | 0 |  |  | inhibition in vivo at 48.46 µmol/kg [3]: 100%; IC50 [4]: 192 nM
O=C(NN=Cc1cn(-c2ccc(Br)cc2)nc1-c1ccccc1)c1ccccc1O [Compound 9, Nʹ-[(1-(4-bromophenyl)-3-phenyl-1H-pyrazol-4-yl)methylene] salicylhydrazide] | 0.084 | 0.256 | 34.7 ± 4.1 | 8.6 ± 1.8 | < 50 | 
CN(C)C=NS(=O)(=O)c1ccc(-n2cc(/C=N/NC(=O)c3ccccc3O)c(-c3ccc(Cl)cc3)n2)cc1 [Compound 10, Nʹ-[(3-(4-chlorophenyl)-1-((4-N,N-dimethylaminomethylenesulfonamido)phenyl)-1H-pyrazol-4-yl)methylene] salicylhydrazide] | 0.207 | 0.45 | 33.0 ± 6.7 | 6.8 ± 0.7 | < 50 | 
Cc1ccc(-n2cc(C=NNC(=O)c3ccccc3O)c(-c3ccccc3)n2)cc1 [Compound 11, Nʹ-[(3-phenyl-1-(4-methylphenyl)-1H-pyrazol-4-yl)methylene] salicylhydrazide] | 5.74 | 10.4 | 30.0 ± 6.7 | 8.7 ± 0.7 | < 50 | 
Cc1ccc(-c2nn(-c3ccc(S(=O)(=O)N=CN(C)C)cc3)cc2/C=N/NC(=O)c2ccccc2O)cc1 [Compound 12] | 0.111 | 0.28 | 67.9 ± 3.7 | 7.8 ± 1.2 |  | 
Cc1ccc(-c2nn(-c3ccc(S(=O)(=O)N=CN(C)C)cc3)cc2/C=N/Nc2ccccc2)cc1 [Compound 13, N,N-dimethylaminomethylene-4-[(3-(4-methylphenyl)-4-(phenylhydrazonomethylene))-1H-pyrazol-1-yl]benzenesulfonamide] |  |  | 24.0 ± 1.7 | 9.5 ± 1.9 | > 50 | IC50 ([1]; Leishmania aethiopica, read-out: IC50 Values (µM/mL), antipromastigote activity): 0.033 µM; IC50 [1, 10]: 0.604 µM; fold more active than amphotericin B deoxycholate (antipromastigote) ([1]; ratio of IC50 values versus amphotericin B deoxycholate): ~2.6 fold; CC50 at 72 h [5]: 118000 nM; SI (selectivity index, CC50/IC50) (VERO cells): 194 and 194.88; intraperitoneal acute toxicity ([6]; intraperitoneal injection ≤ 140 mg/kg, within 24 h or the entire study period): devoid of any inherent dose-dependent toxicity or death; oral acute toxicity: death ([6]; oral 50, 100, 200 and 300 mg/kg, 14 days): devoid of any death at all dose; oral acute toxicity: physical and gross behavioral observations ([6]; oral, up to highest dose 300 mg/kg): no visible symptoms of toxicity
Cc1ccc(-c2nn(-c3ccc(S(N)(=O)=O)cc3)cc2/C=N/N)cc1 [Compound 14, 4-[3-(4-methylphenyl)-4-hydrazonomethylene-1H-pyrazol-1-yl] benzenesulfonamide] | 3.26 | 6.71 | 15.5 ± 4.1 | 9.0 ± 2.0 |  | 
Cc1ccc(-c2nn(-c3ccc(S(=O)(=O)N=CN(C)C)cc3)cc2C=NN=Cc2cn(-c3ccc(S(=O)(=O)N=CN(C)C)cc3)nc2-c2ccc(C)cc2)cc1 [Compound 15, Bis-[N,N-dimethylaminomethylene-4-(3-(4-methylphenyl)-4-(hydrazonomethylene)-1H-pyrazole-1-yl)benzenesulfonamide]] | 0.181 | 0.441 | 5.0 ± 1.4 | 7.7 ± 1.4 |  | mean survival time at half dose ([3]; P. berghei infected mice, half dose (24.2 µmol/mL)): 9.8 ± 1.3
CCCCCCCCCCCCCCCCOP(=O)([O-])OCC[N+](C)(C)C [Miltefosine, hexadecylphosphocholine, reference compound] | 3.13 | 7.68 |  |  |  | IC50 [1, 10]: 7.9 µM; CC50 at 72 h [5]: 99700 nM; SI (selectivity index, CC50/IC50) (VERO cells): 12.63; IC50, antileishmanial activities [2]: 3.1921 µg/mL (≈ 7.83 µM)
